Results published in ChEMBL document CHEMBL1144455, “A small molecule-kinase interaction map for clinical kinase inhibitors” (Nat Biotechnol, 2005).

Key:
Insulin receptor = Insulin receptor (Homo sapiens, UniProt P06213)
[1] = target: Calcium/calmodulin-dependent protein kinase type II subunit beta (Homo sapiens, UniProt Q13554)
[2] = target: Ribosomal protein S6 kinase alpha-3 (Homo sapiens, UniProt P51812)
[3] = target: Serine/threonine-protein kinase Nek6 (Homo sapiens, UniProt Q9HC98)
[4] = target: Death-associated protein kinase 2 (Homo sapiens, UniProt Q9UIK4)
[5] = target: T1, Membrane-associated tyrosine- and threonine-specific cdc2-inhibitory kinase (Homo sapiens, UniProt Q99640)
T1 sequence (Q99640 whole entry): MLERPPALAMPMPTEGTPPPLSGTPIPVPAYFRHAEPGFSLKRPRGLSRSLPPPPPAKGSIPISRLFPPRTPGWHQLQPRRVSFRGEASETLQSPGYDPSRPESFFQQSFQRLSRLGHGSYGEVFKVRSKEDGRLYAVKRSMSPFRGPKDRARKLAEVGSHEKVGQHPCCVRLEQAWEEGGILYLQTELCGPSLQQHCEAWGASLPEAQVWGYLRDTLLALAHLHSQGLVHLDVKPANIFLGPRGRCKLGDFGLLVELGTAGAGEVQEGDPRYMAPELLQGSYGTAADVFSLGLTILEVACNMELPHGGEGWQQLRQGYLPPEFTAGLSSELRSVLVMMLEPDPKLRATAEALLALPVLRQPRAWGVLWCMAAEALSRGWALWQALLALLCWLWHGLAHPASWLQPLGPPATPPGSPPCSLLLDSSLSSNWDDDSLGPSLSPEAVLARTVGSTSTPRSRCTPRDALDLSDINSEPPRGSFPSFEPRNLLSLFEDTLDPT

[6] = target: T2, Mitogen-activated protein kinase kinase kinase 5 (Homo sapiens, UniProt Q99683)
T2 sequence (Q99683 whole entry): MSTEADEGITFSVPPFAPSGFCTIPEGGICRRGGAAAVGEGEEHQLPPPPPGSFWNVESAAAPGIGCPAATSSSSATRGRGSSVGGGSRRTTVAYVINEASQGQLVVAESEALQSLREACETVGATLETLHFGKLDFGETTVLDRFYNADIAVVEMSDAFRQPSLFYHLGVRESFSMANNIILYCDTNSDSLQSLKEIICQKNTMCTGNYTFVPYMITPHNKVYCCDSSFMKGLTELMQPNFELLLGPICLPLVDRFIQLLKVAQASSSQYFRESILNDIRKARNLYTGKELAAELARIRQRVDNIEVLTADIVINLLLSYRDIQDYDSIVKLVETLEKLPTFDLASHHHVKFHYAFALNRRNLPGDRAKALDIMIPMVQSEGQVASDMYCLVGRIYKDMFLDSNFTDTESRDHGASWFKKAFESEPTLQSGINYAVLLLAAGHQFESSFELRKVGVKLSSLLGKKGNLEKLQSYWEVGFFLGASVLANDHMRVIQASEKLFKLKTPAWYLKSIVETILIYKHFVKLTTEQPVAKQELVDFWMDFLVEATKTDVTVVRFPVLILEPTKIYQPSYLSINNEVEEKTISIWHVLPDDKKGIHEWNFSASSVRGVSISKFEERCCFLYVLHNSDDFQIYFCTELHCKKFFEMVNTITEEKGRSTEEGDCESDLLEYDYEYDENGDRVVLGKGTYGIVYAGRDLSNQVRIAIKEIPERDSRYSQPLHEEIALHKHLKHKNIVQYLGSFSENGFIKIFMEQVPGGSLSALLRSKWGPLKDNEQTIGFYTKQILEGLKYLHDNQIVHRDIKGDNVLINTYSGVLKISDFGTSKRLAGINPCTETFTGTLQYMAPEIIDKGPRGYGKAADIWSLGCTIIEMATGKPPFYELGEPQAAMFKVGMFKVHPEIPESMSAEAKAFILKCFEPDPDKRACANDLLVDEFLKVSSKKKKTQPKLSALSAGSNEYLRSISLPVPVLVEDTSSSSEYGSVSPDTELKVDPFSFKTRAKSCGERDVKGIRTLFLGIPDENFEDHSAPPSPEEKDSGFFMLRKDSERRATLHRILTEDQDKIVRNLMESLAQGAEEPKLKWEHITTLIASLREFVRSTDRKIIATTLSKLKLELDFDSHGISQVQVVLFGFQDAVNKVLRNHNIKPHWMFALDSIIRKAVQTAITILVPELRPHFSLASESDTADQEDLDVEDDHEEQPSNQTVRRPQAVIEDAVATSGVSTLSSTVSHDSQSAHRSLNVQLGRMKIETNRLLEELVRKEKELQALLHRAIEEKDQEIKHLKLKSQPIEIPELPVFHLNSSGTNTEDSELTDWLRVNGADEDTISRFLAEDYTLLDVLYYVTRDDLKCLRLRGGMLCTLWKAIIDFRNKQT

[7] = target: T3, Dual specificity protein kinase TTK (Homo sapiens, UniProt P33981)
T3 sequence (P33981 whole entry): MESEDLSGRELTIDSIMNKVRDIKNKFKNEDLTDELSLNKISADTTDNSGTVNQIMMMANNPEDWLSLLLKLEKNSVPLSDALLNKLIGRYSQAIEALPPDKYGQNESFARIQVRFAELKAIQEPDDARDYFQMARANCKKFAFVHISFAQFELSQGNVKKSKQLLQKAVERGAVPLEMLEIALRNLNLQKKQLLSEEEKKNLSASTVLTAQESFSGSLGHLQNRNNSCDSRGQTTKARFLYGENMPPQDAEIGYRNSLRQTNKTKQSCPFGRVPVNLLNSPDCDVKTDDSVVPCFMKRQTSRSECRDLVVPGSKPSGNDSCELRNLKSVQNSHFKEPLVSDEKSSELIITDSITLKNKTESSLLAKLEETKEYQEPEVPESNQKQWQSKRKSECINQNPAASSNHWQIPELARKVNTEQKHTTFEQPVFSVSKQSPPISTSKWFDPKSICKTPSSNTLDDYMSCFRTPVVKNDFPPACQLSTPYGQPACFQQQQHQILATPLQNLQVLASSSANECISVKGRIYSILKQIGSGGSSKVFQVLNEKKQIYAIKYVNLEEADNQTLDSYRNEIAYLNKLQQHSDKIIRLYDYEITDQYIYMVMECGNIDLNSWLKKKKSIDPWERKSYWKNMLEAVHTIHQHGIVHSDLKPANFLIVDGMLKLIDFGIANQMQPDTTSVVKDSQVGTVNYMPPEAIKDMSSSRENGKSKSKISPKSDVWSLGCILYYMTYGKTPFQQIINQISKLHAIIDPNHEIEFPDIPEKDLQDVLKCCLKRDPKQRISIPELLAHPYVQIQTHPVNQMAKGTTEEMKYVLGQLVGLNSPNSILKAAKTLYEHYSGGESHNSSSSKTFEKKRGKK

Measured: Kd

Sequence of Calcium/calmodulin-dependent protein kinase type II subunit beta (Q13554 whole entry): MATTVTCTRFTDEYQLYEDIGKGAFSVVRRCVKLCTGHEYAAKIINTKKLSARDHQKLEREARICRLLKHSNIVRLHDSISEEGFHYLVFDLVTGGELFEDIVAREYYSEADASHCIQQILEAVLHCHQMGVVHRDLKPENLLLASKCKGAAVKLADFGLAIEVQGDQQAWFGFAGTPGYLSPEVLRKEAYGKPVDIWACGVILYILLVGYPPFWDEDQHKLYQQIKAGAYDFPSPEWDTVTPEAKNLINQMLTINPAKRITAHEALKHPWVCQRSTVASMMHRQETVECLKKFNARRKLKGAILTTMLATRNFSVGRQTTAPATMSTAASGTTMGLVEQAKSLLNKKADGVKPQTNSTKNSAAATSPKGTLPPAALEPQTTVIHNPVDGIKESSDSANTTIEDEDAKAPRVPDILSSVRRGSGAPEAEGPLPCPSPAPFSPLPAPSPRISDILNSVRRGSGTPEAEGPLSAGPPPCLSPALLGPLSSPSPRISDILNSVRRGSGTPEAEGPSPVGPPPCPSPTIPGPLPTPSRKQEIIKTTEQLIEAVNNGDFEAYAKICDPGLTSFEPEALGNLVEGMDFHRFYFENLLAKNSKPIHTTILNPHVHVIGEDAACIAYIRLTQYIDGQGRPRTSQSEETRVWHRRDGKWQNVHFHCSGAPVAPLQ
Sequence of Death-associated protein kinase 2 (Q9UIK4 whole entry): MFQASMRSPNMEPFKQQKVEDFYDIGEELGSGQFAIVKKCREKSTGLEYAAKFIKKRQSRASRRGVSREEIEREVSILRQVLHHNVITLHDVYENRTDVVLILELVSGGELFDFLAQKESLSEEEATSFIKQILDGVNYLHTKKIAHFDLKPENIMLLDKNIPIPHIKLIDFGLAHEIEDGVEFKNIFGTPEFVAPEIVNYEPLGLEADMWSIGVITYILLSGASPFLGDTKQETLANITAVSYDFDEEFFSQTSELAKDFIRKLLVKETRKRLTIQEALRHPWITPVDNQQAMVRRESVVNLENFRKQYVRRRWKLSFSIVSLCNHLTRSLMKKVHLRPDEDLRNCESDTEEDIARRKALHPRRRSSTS
Sequence of Serine/threonine-protein kinase Nek6 (Q9HC98 whole entry): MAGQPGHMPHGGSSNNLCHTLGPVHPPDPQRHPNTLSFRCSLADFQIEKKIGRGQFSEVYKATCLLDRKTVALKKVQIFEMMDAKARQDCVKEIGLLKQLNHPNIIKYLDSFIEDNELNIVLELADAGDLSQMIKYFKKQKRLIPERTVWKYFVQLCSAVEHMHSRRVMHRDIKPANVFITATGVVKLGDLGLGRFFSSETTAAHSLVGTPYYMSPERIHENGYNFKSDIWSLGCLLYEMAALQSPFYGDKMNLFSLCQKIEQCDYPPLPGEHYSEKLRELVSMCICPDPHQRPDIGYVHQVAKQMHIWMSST
Sequence of Insulin receptor (P06213 28-758 limits assumed): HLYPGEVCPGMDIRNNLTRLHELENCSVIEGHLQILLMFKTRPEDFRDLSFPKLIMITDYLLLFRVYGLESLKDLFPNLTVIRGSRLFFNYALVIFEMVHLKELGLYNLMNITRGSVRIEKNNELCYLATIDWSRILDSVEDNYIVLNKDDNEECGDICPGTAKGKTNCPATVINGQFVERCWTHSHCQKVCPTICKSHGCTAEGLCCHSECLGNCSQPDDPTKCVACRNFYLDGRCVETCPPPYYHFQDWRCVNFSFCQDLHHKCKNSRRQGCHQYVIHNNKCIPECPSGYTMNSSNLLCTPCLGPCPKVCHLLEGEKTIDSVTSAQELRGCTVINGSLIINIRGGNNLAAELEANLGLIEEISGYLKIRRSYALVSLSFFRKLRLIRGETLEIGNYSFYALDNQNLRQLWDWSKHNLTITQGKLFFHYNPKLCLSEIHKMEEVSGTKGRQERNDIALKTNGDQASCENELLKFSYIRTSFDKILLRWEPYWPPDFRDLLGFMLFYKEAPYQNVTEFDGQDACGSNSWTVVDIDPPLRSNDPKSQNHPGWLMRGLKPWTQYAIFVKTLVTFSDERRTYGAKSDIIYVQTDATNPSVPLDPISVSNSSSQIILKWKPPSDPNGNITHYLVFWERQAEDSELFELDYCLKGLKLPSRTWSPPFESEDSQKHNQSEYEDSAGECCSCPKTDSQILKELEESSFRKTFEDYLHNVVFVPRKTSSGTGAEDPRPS
Sequence of Insulin receptor (P06213 763-1382 limits assumed): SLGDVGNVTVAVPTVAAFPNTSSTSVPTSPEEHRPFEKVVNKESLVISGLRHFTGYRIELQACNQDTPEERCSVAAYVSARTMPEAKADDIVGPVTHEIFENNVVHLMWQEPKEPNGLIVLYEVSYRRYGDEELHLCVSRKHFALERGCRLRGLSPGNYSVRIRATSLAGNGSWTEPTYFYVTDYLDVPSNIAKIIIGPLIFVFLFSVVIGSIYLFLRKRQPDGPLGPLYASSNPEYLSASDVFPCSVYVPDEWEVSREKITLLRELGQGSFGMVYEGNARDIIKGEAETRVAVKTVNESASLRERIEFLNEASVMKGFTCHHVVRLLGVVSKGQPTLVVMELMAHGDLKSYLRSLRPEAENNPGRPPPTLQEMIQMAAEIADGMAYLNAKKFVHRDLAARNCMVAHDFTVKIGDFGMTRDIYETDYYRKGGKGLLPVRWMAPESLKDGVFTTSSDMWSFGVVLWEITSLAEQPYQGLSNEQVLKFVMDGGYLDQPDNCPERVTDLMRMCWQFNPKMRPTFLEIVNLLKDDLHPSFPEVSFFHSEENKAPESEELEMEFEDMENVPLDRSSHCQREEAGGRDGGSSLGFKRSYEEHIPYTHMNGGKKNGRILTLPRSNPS
Sequence of Ribosomal protein S6 kinase alpha-3 (P51812 whole entry): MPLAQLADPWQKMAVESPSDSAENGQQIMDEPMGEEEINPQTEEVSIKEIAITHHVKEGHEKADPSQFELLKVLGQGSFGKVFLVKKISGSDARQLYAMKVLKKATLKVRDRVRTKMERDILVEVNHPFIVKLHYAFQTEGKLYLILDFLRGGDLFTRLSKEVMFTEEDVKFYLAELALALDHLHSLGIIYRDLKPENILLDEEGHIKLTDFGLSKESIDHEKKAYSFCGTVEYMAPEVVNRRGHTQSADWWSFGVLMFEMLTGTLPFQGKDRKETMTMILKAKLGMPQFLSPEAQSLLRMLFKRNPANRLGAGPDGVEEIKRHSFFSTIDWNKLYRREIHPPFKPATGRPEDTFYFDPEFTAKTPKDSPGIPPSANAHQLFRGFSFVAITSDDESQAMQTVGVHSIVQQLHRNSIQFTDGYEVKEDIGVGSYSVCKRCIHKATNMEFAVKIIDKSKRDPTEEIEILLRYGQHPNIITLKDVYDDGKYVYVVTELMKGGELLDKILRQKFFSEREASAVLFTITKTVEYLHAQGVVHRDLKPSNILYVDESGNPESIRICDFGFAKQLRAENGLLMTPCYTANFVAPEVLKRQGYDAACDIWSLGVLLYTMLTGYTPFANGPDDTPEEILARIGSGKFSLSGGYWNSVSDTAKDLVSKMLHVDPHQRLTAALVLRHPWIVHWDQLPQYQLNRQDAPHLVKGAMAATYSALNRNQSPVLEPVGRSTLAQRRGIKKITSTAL

CC[C@H](CO)Nc1nc(NCc2ccccc2)c2ncn(C(C)C)c2n1 [SELICICLIB]
not listed: [7]
Not Active: all other assays above

COc1cc2c(N3CCN(C(=O)Nc4ccc(OC(C)C)cc4)CC3)ncnc2cc1OCCCN1CCCCC1 [TANDUTINIB]
Not Active: all assays above

Oc1ccc(-c2nc(-c3ccc(F)cc3)c(-c3ccncc3)[nH]2)cc1 [SB-202190]
Not Active: all assays above

C[S+]([O-])c1ccc(-c2nc(-c3ccc(F)cc3)c(-c3ccncc3)[nH]2)cc1 (configuration not stated) [SB-203580]
Not Active: all assays above

CCOc1cc2ncc(C#N)c(Nc3ccc(F)c(Cl)c3)c2cc1NC(=O)/C=C/CN(C)C [PELITINIB]
not listed: [5]
Not Active: all other assays above

Cc1ccc(NC(=O)c2ccc(CN3CCN(C)CC3)cc2)cc1Nc1nccc(-c2cccnc2)n1 [IMATINIB]
Not Active: all assays above

O=c1ncn2nc(Sc3ccc(F)cc3F)ccc2c1-c1c(Cl)cccc1Cl [NEFLAMAPIMOD]
Not Active: all assays above

Oc1c2ccccc2c2c3c(cccc13)N=N2 [SP-600125]
Not Active: Insulin receptor | [2] | [3] | [5] | [6]

C#Cc1cccc(Nc2ncnc3cc(OCCOC)c(OCCOC)cc23)c1 [ERLOTINIB]
Not Active: all assays above
